{
  "source": "paper PMC12534982",
  "about": "(Journal of Experimental & Clinical Cancer Research : CR, 2025)",
  "assay_type_in_all_cases": "cell-based, human",
  "key": {"[1]": {"tested_on": "healthy fibroblasts and keratinocytes", "assay": "Cell viability / morphology in healthy cells", "details": "25 µM, 48 h", "excerpt": "Brightfield images were captured using a Leica DMi8 microscope with a 10X or 20X objective (HC PL FLUOTAR 10X/0.45 or 20X/0.75) equipped with a Leica DFC9000GT camera, and processed with a Leica Application Suite X (LAS X) Life Science Microscope Software (v3.5.5.19976, RRID:SCR_013673)."}, "FBS-starved cancer cells": {"tested_on": "FBS-starved cancer cells", "assay": "Serum starvation of cancer cells (CellTiter-Glo)", "details": "25 µM, 24 h, FBS-free", "protocol": "Cancer cells (7.5 × 10^3) were cultured in a 96-well plate in DMEM (fortified with 10% FBS) for 24 h. Subsequently, the cells were subjected to serum starvation (FBS-free DMEM) and treated with either DMSO or NK-A 17E-233I (25 µM) for an additional 24 h. Cell proliferation was measured using the CellTiter-Glo reagent as previously described."}, "[2]": {"tested_on": "colorectal cancer cell lines", "assay": "DNA fiber assays", "protocol": "Cancer cells were pulse-labeled with 20 µM iododeoxyuridine (IdU) in the dark at 37 °C for 20 min. Subsequently, the cells were washed twice with PBS and then pulse-labeled with 200 µM chlorodeoxyuridine (CldU) in the presence or absence of NK-A 17E-233I (25 µM) in the dark at 37 °C for 1 h. To assess fork restart in cancer cells following treatment, cells were pulse-labeled with 20 µM IdU for 10 min, after which NK-A 17E-233I (25 µM) was either added or no treatment was administered, followed by an additional 1 h of incubation. The cells were then washed twice with PBS and pulse-labeled with 200 µM CldU for 30 min. Following the labeling procedure, cells were washed twice with PBS, scrapped into PBS containing 0.1% Bovine Serum Albumin (BSA), pelleted, and resuspended in PBS with 0.1% BSA at a final concentration of 1.5 × 10^3 cells/µL. A volume of 2.5 µL of the cell suspension was spotted onto a positively charged slide and lysed with 7.5 µL of a spreading buffer (200 mM Tris–HCl, pH 7.5; 50 mM EDTA; 0.5% SDS) at room temperature for 8 min. The slides were then tilted at 45 ° to facilitate DNA spreading. After air-drying, the slides were fixed with ice-cold methanol/acetic acid (3:1) for 5 min, air-dried again, and stored at 4 °C.\nThe slides were rehydrated with PBS, denatured with 2.5 M HCl for 1 h, washed twice with PBS, and blocked with a blocking buffer (3% BSA; 0.1% Triton X-100 in PBS) for 40 min. Subsequently, the slides were incubated with a primary antibody mixture, including mouse anti-5-Bromo-2'-Deoxyuridine (anti-BrdU) recognizing IdU (#347580; Becton Dickinson, dilution 1:250) and rat anti-BrdU recognizing CldU (#6326; Abcam, dilution 1:250), diluted in a blocking buffer within a dark humid chamber at room temperature for 2.5 h.\nFor silencing, siNT (non-target, D-001810–10-20 On-TARGET plus Non-targeting pool, Dharmacon) (Horizon Discovery, Waterbeach, UK) and siPOLD2 (Smart pool, ON-TARGETplus Human POLD2 (5425) siRNA oligos directed against human POLD2), were used to transfect cells using RNAiMax Lipofectamine Reagent Mix (Life Technologies) according to the manufacturer’s protocol. 48 h post-transfection, the cells were harvested to evaluate the efficiency of gene silencing, which was estimated to be approximately 90% based on western blot analysis, for further experimental applications.\nAfterwards, the slides were washed three times with PBS for 5 min each and incubated with secondary antibodies, anti-mouse Alexa Fluor 594 and anti-rat Alexa Fluor 488 (#A11005 and #A11006, respectively; Invitrogen, dilution 1:250), in a blocking buffer at room temperature in a dark humid chamber for 1 h. After three additional washes with PBS and air-drying, the slides were mounted with ProLong Gold Antifade Reagent (#P36930; Invitrogen) and stored at 4 °C until imaging. Images were acquired using an AF6000 Leica Fluorescence microscope equipped with an HCX PL APO 63x (NA = 1.4) oil objective. ImageJ/Fiji software was utilized to measure the fibers with the segmented line tool."}, "colorectal cancer cells [3]": {"tested_on": "colorectal cancer cells", "assay": "Annexin V-FITC/PI double staining", "details": "25 µM", "protocol": "Cells were harvested as described in the flow cytometry-based cell cycle analysis section. The supernatant was discarded, and the cells were resuspended in 100 μL of cold Annexin buffer (pH 7.4) composed of 18 mL distilled water, 5.5 mg CaCl2, 164 mg NaCl, and 2 mL of 100 mM HEPES. A 1:1 mixture of Annexin V (#130–097-928; Miltenyi Biotec) and propidium iodide (PI, 1 mg/mL) was added to all tubes and incubated in the dark at room temperature for 20 min. Annexin buffer was added, and the samples were analyzed using a CytoFLEX within 1 h. CytExpert and FlowJo software were utilized for data acquisition and analysis."}, "colorectal cancer cells [4]": {"tested_on": "colorectal cancer cells", "assay": "Cleaved caspase-3 by flow cytometry", "details": "25 µM, 48 h", "protocol": "Cancer cells (3 × 10^4) were cultured in 48-well plates and treated with DMSO or NK-A 17E-233I (25 µM) for 48 h. Following treatment, the cells were harvested, and the supernatant was discarded. Cell pellets were resuspended in 4% methanol-free paraformaldehyde (PFA, #28908; Thermo Fisher Scientific) while vortexing and incubated in the dark at room temperature for 15 min. One milliliter of PBS was added to all tubes, followed by centrifugation at 500 × g for 5 min. The supernatant was discarded, and the pellets were permeabilized using 90% cold methanol with incubation on ice for 10 min. Subsequently, 1 mL of 0.5% BSA (#A3059; Sigma-Aldrich) was added, and the samples were centrifuged at 500 × g for 5 min. The supernatant was discarded, and the pellets were resuspended in 0.5% BSA. The anti–caspase-3 (p17, Cleaved-Asp175) primary antibody (#9661; Cell Signaling, dilution 1:800) was used to incubate samples at room temperature for 1 h. Afterwards, 0.5% BSA was added, and the tubes were centrifuged at 500 × g for 5 min. The supernatant was discarded, and the pellets were resuspended in 0.5% BSA. The samples were then incubated with F(ab')2-Goat anti-Rabbit IgG (H + L) Cross-Adsorbed Secondary Antibody, Alexa Fluor 633 (#A-21072; Invitrogen, dilution 1:1000) in the dark at room temperature for 30 min. […]"}, "SW620 cells": {"tested_on": "SW620 cells", "assay": "Glutathione assay (GSH/GSSG)", "details": "25 µM, 24 h", "protocol": "Optical density measurements were recorded at 450 nm using a Victor Multilabel Plate Reader."}},
  "data": [
    {"molecule": "COc1cc(C)c(Oc2cc(C)cc(O)c2O)c(O)c1", "note": "[NK-A 17E-233I]", "values": [
      {"measurement": "cytotoxic effects in healthy cells", "setting": "[1]", "value": "no similar effects were observed"},
      {"measurement": "effect on starved cancer cells", "setting": "FBS-starved cancer cells", "value": "no significant effect"},
      {"measurement": "speed of replication forks (CldU tracks)", "setting": "[2]; 25 µM, 1 h", "value": "significantly reduced"},
      {"measurement": "rescue of replication fork speed by physiological uridine", "setting": "[2]; 25 µM, uridine 10 µM", "value": "did not demonstrate any discernible rescue"},
      {"measurement": "rescue of DNA-damaging effects by excess uridine", "setting": "[2]; 25 µM, uridine 200 µM", "value": "rescued the DNA-damaging effects"},
      {"measurement": "replication fork progression after washout (fork restart)", "setting": "[2]; LS174T, 25 µM, 1 h then washout", "value": "continued to demonstrate a diminished progression rate"},
      {"measurement": "speed of replication forks (CldU tract length)", "setting": "[2]; SW620, 25 µM, 1 h", "value": "significantly diminished"},
      {"measurement": "late-apoptotic cells (Annexin V-FITC)", "setting": "colorectal cancer cells [3]; 48 h", "value": "significantly increased"},
      {"measurement": "apoptosis with pan-caspase inhibitor Z-VAD-FMK", "setting": "colorectal cancer cells [3]; Z-VAD-FMK 10 µM, 24 h", "value": "abolished its activity"},
      {"measurement": "active caspase-3 staining", "setting": "colorectal cancer cells [4]", "value": "significantly increased"},
      {"measurement": "GSH/GSSG ratio", "setting": "SW620 cells", "value": "significantly decreased"},
      {"measurement": "oxidized glutathione (GSSG) levels", "setting": "SW620 cells", "value": "increasing"},
      {"measurement": "reduced glutathione (GSH) levels", "setting": "SW620 cells", "value": "significantly decreased"}
    ]}
  ]
}
